From ChEMBL document CHEMBL1141584, “Synthesis, biological evaluation and molecular modelling studies of methyleneimidazole substituted biaryls as inhibitors of human 17alpha-hydroxylase-17,20-lyase (CYP17). Part I: Heterocyclic modifications of the core structure” (Bioorg Med Chem, 2008)

Experiments:
CYP2C19 [1] = target: T1, CYP2C19 (Homo sapiens, UniProt P33261); test: Inhibition of recombinant CYP2C19 at 1 uM; type: ADME
[2] = Terminal half life in Wistar rat plasma at 50 mg/kg, po; type: ADME, organism-based; design: dose 50 mg/kg, route oral
CYP1A2 [3] = target: T2, CYP1A2 (Homo sapiens, UniProt P05177); test: Inhibition of recombinant CYP1A2 at 10 uM; type: ADME
T2 sequence (P05177 whole entry): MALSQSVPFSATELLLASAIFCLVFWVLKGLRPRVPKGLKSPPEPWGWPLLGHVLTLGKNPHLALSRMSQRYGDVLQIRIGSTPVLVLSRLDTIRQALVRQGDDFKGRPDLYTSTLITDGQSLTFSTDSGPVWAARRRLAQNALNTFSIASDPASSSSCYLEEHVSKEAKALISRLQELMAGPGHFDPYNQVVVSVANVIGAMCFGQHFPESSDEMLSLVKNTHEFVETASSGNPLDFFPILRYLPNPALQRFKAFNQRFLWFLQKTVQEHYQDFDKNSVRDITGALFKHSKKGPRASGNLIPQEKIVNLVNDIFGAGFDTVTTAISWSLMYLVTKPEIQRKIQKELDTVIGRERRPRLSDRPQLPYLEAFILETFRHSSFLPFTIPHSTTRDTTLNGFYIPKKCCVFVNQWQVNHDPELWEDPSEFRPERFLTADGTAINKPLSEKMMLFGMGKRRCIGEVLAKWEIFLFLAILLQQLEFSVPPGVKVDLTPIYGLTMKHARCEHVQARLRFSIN

CYP2B6 [4] = target: T3, CYP2B6 (Homo sapiens, UniProt P20813); test: Inhibition of recombinant CYP2B6 at 10 uM; type: ADME
T3 sequence (P20813 whole entry): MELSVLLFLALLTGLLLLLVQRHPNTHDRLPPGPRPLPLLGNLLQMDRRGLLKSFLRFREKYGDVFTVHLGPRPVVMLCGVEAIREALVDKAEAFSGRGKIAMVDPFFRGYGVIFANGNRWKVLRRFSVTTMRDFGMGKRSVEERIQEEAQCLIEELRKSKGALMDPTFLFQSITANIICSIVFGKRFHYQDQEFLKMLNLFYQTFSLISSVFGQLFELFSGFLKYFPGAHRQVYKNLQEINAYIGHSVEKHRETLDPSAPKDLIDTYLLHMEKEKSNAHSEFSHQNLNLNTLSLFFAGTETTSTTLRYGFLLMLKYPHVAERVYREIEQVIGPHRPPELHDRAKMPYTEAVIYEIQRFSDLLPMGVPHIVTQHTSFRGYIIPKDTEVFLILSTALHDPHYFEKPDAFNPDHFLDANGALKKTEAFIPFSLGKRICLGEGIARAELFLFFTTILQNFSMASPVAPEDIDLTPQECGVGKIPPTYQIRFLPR

Rattus norvegicus [5] = test: Reduction of testosterone level in Wistar rat at 50 mg/kg, po after 4 hrs by ELISA relative to pretreatment value; type: functional; design: scale not given: the % may be the effect or the level left
CYP1A2 [6] = target: T2, CYP1A2; test: Inhibition of recombinant CYP1A2 at 1 uM; type: ADME
[7] = target: T4, Steroid 17-alpha-hydroxylase/17,20 lyase (Homo sapiens, UniProt P05093); test: Inhibition of human CYP17 expressed in Escherichia coli co-expressed with NADPH-P450 reductase at 2 uM
T4 sequence (P05093 whole entry): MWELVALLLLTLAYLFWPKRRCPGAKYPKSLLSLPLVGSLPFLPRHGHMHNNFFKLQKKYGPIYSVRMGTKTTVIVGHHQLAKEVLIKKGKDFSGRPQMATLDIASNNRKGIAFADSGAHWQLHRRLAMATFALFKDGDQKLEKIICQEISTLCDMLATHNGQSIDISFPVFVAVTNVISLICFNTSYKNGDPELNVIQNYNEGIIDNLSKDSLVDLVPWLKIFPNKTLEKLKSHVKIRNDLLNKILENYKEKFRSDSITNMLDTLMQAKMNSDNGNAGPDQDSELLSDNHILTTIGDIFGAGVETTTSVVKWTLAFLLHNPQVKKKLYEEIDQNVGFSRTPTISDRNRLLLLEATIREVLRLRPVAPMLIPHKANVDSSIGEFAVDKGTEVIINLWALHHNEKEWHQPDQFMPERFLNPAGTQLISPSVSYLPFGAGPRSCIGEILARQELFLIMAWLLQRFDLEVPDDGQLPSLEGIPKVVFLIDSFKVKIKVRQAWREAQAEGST

CYP2B6 [8] = target: T3, CYP2B6; test: Inhibition of recombinant CYP2B6 at 1 uM; type: ADME
CYP2D6 [9] = target: T5, CYP2D6 (Homo sapiens, UniProt P10635); test: Inhibition of recombinant CYP2D6 at 1 uM; type: ADME
T5 sequence (P10635 whole entry): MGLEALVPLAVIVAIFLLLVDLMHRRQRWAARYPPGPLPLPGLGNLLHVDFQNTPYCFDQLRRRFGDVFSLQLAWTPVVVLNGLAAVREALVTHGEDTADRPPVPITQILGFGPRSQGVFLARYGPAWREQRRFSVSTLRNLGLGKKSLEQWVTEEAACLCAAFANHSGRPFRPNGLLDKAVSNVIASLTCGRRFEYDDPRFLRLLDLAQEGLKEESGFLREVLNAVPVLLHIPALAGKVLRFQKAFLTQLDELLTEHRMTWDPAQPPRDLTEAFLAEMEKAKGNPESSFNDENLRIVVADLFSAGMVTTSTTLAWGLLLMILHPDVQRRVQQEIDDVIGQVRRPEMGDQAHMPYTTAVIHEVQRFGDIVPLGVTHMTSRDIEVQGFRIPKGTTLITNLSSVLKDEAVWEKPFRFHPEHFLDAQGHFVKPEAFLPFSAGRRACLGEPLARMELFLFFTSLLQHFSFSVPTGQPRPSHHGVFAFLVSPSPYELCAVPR

[10] = target: T6, Steroid 17-alpha-hydroxylase/17,20 lyase (Rattus norvegicus, UniProt P11715); test: Inhibition of Sprague-Dawley rat testicular CYP17
T6 sequence (P11715 whole entry): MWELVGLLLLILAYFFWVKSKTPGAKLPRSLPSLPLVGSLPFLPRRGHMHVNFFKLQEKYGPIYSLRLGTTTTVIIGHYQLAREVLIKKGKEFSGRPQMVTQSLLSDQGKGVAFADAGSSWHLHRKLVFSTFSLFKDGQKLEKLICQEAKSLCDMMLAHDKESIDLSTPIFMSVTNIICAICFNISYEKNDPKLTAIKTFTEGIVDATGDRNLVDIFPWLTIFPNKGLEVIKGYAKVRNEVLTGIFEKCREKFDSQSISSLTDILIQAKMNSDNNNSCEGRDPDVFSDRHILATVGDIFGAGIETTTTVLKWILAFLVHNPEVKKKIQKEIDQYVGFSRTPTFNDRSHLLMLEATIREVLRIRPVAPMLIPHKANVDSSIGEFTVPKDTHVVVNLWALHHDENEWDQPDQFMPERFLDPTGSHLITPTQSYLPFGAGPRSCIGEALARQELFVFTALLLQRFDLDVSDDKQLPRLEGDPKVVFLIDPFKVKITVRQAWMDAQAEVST

[11] = AUC (0 to infinity) in Wistar rat at 50 mg/kg, po; type: ADME, organism-based; design: time infinity, dose 50 mg/kg, route oral; details: plasma
CYP3A4 [12] = target: T7, CYP3A4 (Homo sapiens, UniProt P08684); test: Inhibition of recombinant CYP3A4 at 10 uM; type: ADME
T7 sequence (P08684 whole entry): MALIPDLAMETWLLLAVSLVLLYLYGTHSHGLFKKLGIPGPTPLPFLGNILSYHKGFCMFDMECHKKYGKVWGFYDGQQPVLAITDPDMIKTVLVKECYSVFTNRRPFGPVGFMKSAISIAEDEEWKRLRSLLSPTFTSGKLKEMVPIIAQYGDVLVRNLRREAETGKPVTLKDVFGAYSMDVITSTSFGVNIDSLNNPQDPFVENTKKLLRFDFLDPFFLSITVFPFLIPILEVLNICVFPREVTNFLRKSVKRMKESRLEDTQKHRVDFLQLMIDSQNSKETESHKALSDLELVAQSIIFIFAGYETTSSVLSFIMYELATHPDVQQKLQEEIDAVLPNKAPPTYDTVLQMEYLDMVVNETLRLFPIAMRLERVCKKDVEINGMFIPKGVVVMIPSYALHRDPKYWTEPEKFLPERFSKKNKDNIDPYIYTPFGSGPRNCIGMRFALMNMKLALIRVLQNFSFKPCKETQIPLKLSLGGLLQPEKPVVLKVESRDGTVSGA

CYP3A4 [13] = target: T7, CYP3A4; test: Inhibition of recombinant CYP3A4 at 1 uM; type: ADME
CYP2D6 [14] = target: T5, CYP2D6; test: Inhibition of recombinant CYP2D6 at 10 uM; type: ADME
[15] = Tmax in Wistar rat at 50 mg/kg, po; type: ADME, organism-based; design: dose 50 mg/kg, route oral; details: in vivo
[16] = target: T4, Steroid 17-alpha-hydroxylase/17,20 lyase; test: Inhibition of human CYP17 expressed in Escherichia coli co-expressed with NADPH-P450 reductase at 0.2 uM
CYP2C9 [17] = target: T8, CYP2C9 (Homo sapiens, UniProt P11712); test: Inhibition of recombinant CYP2C9 at 10 uM; type: ADME
T8 sequence (P11712 whole entry): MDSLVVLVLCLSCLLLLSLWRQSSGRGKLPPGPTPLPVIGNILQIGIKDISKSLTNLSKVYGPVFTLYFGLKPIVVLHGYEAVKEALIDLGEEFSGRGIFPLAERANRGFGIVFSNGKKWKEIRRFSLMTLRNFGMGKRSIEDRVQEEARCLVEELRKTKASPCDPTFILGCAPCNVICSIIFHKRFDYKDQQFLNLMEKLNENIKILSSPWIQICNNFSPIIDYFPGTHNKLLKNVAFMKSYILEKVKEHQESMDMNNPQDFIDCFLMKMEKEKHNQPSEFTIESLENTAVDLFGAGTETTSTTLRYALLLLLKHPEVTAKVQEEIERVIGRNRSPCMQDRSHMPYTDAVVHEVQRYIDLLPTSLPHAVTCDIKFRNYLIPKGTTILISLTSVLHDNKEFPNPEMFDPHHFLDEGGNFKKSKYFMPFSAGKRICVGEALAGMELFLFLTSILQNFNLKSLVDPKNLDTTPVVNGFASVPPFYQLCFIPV

[18] = Cmax in Wistar rat at 50 mg/kg, po; type: ADME, organism-based; design: dose 50 mg/kg, route oral; details: in vivo
Rattus norvegicus [19] = test: Reduction of testosterone level in Wistar rat plasma at 50 mg/kg, po after 6 hrs by ELISA relative to pretreatment value; type: functional; design: scale not given: the % may be the effect or the level left
CYP2C9 [20] = target: T8, CYP2C9; test: Inhibition of recombinant CYP2C9 at 1 uM; type: ADME
[21] = target: T4, Steroid 17-alpha-hydroxylase/17,20 lyase; test: Inhibition of human CYP17 expressed in Escherichia coli co-expressed with NADPH-P450 reductase
Rattus norvegicus [22] = test: Reduction of testosterone level in Wistar rat plasma at 50 mg/kg, po after 8 hrs by ELISA relative to pretreatment value; type: functional; design: scale not given: the % may be the effect or the level left
Rattus norvegicus [23] = test: Reduction of testosterone level in Wistar rat plasma at 50 mg/kg, po after 1 hr by ELISA relative to pretreatment value; type: functional; design: scale not given: the % may be the effect or the level left
CYP2C19 [24] = target: T1, CYP2C19; test: Inhibition of recombinant CYP2C19 at 10 uM; type: ADME
[25] = Total body clearance in Wistar rat at 50 mg/kg, po; type: ADME, organism-based; design: dose 50 mg/kg, route oral; details: in vivo
Rattus norvegicus [26] = test: Reduction of testosterone level in Wistar rat plasma at 50 mg/kg, po after 2 hrs by ELISA relative to pretreatment value; type: functional; design: scale not given: the % may be the effect or the level left
Rattus norvegicus [27] = test: Reduction of testosterone level in Wistar rat plasma at 56.02 mg/kg, po after 4 hrs by ELISA relative to pretreatment value; type: functional; design: scale not given: the % may be the effect or the level left
Rattus norvegicus [28] = test: Reduction of testosterone level in Wistar rat plasma at 56.02 mg/kg, po after 6 hrs by ELISA relative to pretreatment value; type: functional; design: scale not given: the % may be the effect or the level left
Rattus norvegicus [29] = test: Reduction of testosterone level in Wistar rat plasma at 56.02 mg/kg, po after 1 hr by ELISA relative to pretreatment value; type: functional; design: scale not given: the % may be the effect or the level left
Rattus norvegicus [30] = test: Reduction of testosterone level in Wistar rat plasma at 56.02 mg/kg, po after 2 hrs by ELISA relative to pretreatment value; type: functional; design: scale not given: the % may be the effect or the level left
Rattus norvegicus [31] = test: Reduction of testosterone level in Wistar rat plasma at 56.02 mg/kg, po after 8 hrs by ELISA relative to pretreatment value; type: functional; design: scale not given: the % may be the effect or the level left
[32] = target: T4, Steroid 17-alpha-hydroxylase/17,20 lyase; test: Inhibition of human CYP17 expressed in Escherichia coli co-expressed with NADPH-P450 reductase at 1 uM

T1 sequence (P33261 whole entry): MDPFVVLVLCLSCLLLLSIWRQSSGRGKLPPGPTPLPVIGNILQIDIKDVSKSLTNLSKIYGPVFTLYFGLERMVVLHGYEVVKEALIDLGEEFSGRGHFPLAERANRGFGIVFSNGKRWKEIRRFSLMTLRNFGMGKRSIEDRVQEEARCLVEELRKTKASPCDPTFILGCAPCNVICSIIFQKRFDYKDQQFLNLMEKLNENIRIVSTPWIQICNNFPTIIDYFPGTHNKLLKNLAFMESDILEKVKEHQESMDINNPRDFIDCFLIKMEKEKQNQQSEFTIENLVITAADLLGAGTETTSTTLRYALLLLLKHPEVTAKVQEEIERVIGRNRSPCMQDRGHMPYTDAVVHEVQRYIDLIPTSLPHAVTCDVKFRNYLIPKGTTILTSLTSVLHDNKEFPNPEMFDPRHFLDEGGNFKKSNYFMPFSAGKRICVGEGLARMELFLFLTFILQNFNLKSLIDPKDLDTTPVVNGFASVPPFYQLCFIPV

SMILES	inhibition at 1 µM (CYP2C19 [1]) [%]	half-life [2] [h]	inhibition at 10 µM (CYP1A2 [3]) [%]	inhibition at 10 µM (CYP2B6 [4]) [%]	Activity (Rattus norvegicus [5]) [%]	inhibition at 1 µM (CYP1A2 [6]) [%]	inhibition at 2 µM [7] [%]	inhibition at 1 µM (CYP2B6 [8]) [%]	inhibition at 1 µM (CYP2D6 [9]) [%]	IC50 [10] [nM]	AUC(0-inf) [11] [ng·h/mL]	inhibition at 10 µM (CYP3A4 [12]) [%]	inhibition at 1 µM (CYP3A4 [13]) [%]	inhibition at 10 µM (CYP2D6 [14]) [%]	Tmax [15] [h]	inhibition at 0.2 µM [16] [%]	inhibition at 10 µM (CYP2C9 [17]) [%]	Cmax [18] [ng/mL]	Activity (Rattus norvegicus [19]) [%]	inhibition at 10 µM (CYP2C19 [24]) [%]	also measured
CC(c1ccc(-c2ccsc2)cc1)n1ccnc1 (stereo not given)	87	9.5	100	87	25.9	97	67	49	17	676	24900	94	80	68	1	21	89	1280	29.7	99	inhibition at 1 µM (CYP2C9 [20]): 75%; IC50 [21]: 953 nM; Activity (Rattus norvegicus [22]): 34.1%; Activity (Rattus norvegicus [23]): 30.9%; CL/F [25]: 33.5 mL/min/kg
CCC(c1ccc(-c2ccsc2)cc1)n1ccnc1 (stereo not given)	95	3.8	100	87	26.9	98	83	60	24	562	6700	92	88	77	1	28	74	1740	62.6	100	Activity (Rattus norvegicus [26]): 30.5%; inhibition at 1 µM (CYP2C9 [20]): 81%; IC50 [21]: 373 nM; Activity (Rattus norvegicus [22]): 63%; Activity (Rattus norvegicus [23]): 37.6%; CL/F [25]: 125 mL/min/kg
CC(=O)O[C@H]1CC[C@@]2(C)C(=CC[C@@H]3[C@@H]2CC[C@]2(C)C(c4cccnc4)=CC[C@@H]32)C1 [ABIRATERONE ACETATE]																					Activity (Rattus norvegicus [27]): 43.5%; Activity (Rattus norvegicus [28]): 43.3%; Activity (Rattus norvegicus [29]): 92.5%; Activity (Rattus norvegicus [30]): 44%; Activity (Rattus norvegicus [31]): 35.6%
CC(=O)N1CCN(c2ccc(OCC3COC(Cn4ccnc4)(c4ccc(Cl)cc4Cl)O3)cc2)CC1 (stereo not given) [KETOCONAZOLE]				57				11												79	inhibition at 1 µM [32]: 19%
